In ChEMBL document CHEMBL1132363, “Asymmetric synthesis and antiviral activities of L-carbocyclic 2', 3'-didehydro-2',3'-dideoxy and 2',3'-dideoxy nucleosides” (J Med Chem, 1999):

Legend:
[1] = The compound was tested for the cytotoxicity against peripheral blood mononuclear (PBM)cells; assay type: functional, cell-based; details: Homo sapiens
CCRF-CEM = assay: The compound was tested for the cytotoxicity against CEM cells; assay type: functional, cell-based; details: Homo sapiens
Homo sapiens [2] = species on record: Homo sapiens; assay: The compound was tested in vitro for the anti-HBV activity against 2.2.15 cells; assay type: functional, cell-based; details: HepG2 2.2.15
[3] = The compound was tested in vitro for the anti-HIV activity against peripheral blood mononuclear (PBM)cells; assay type: functional; details: Homo sapiens
Vero = assay: The compound was tested for the cytotoxicity against Vero cells; assay type: functional, cell-based; details: Chlorocebus sabaeus
[4] = The compound was tested in vitro for the anti-HIV activity in peripheral blood mononuclear (PBM) cells; assay type: functional; details: Homo sapiens
[5] = The compound was tested for the cytotoxicity against peripheral blood mononuclear (PBM) cells; assay type: functional, cell-based; details: Homo sapiens
Homo sapiens [6] = species on record: Homo sapiens; assay: The compound was tested in vitro for the anti-HBV activity in 2.2.15 cells; assay type: functional, cell-based; details: HepG2 2.2.15

Row | Structure (SMILES) | IC50 [1] | IC50 (CCRF-CEM) | EC50 (Homo sapiens [2]) | EC50 [3] | IC50 (Vero) | EC50 [4] | IC50 [5] | EC50 (Homo sapiens [6]) | EC90 [3]
1 | Nc1ncnc2c1ncn2[C@@H]1C=C[C@H](CO)C1 | > 100 µM | > 100 µM | 0.9 µM | 2.4 µM | > 100 µM |  |  |  | 
2 | O=c1ccn(C2CCC(CO)C2)c(=O)[nH]1 (stereo not drawn) | > 100 µM | > 100 µM | > 10 µM | > 100 µM | > 100 µM |  |  |  | 
3 | O=c1ccn([C@@H]2C=C[C@H](CO)C2)c(=O)[nH]1 | > 100 µM | > 100 µM | > 10 µM | > 100 µM | > 100 µM |  |  |  | 
4 | OC[C@H]1C=C[C@@H](n2cnc3c(S)ncnc32)C1 |  | > 100 µM |  |  | > 100 µM | > 100 µM | > 100 µM | > 10 µM | 
5 | Nc1ncnc2c1ncn2C1CCC(CO)C1 (stereo not drawn) | > 100 µM | > 100 µM | > 50 µM | 27 µM | > 100 µM |  |  |  | 
6 | Nc1ccn([C@@H]2C=C[C@H](CO)C2)c(=O)n1 | > 100 µM | > 100 µM | > 10 µM | 38.8 µM | > 100 µM |  |  |  | 65.9 µM
7 | OC[C@H]1CC[C@@H](n2cnc3c(O)ncnc32)C1 | > 100 µM | > 100 µM |  |  | > 100 µM | > 100 µM |  | > 10 µM | 
8 | Cc1cn(C2CCC(CO)C2)c(=O)[nH]c1=O (stereo not drawn) | > 100 µM | > 100 µM | > 10 µM | > 100 µM | 171 µM |  |  |  | 
9 | OC[C@H]1C=C[C@@H](n2cnc3c(O)ncnc32)C1 | > 100 µM | > 100 µM | > 10 µM | > 100 µM | > 100 µM |  |  |  | 
10 | Nc1nc(O)c2ncn([C@@H]3C=C[C@H](CO)C3)c2n1 |  |  | > 200 µM | > 200 µM |  |  |  |  | 
11 | COC1O[C@H]2[C@H](COC(C)(C)C)C[C@H](n3cnc4c(Cl)ncnc43)[C@H]2O1 (stereo partly drawn) | > 100 µM | > 100 µM | > 10 µM | > 100 µM | > 100 µM |  |  |  | 
12 | Cc1cn([C@@H]2C=C[C@H](CO)C2)c(=O)[nH]c1=O | 66.6 µM | > 100 µM | > 10 µM | > 100 µM | 49.4 µM |  |  |  | 
